{
  "source": "patent US20120010229A1",
  "about": "“THERAPEUTIC REGIMENS FOR HEDGEHOG-ASSOCIATED CANCERS” (priority 2010, published 2012)",
  "key": {"[1]": {"test_system": "L3.6pl P-lucky liver metastasis", "assay": "L3.6pl liver metastasis model, Study #1", "format": "in vivo", "settings": "for H&E staining of liver, tumor cells or metastasis: day 21", "description": "Cells: L3.6pl is a pancreatic cancer cell line that has been tagged with the bioluminescence marker, luciferase, and is known to form metastasis in the liver (pl—pancreas to liver). Cells were cultured in RPMI+10% FBS and harvested on the day of implant. A single cell suspension was prepared in PBS at a concentration of 10 million cells per 1 ml of PBS. These cells were kept at 4° C. until implantation.\n(§1) Model Procedure: Animals were anesthetized and prepared for surgery. The animal's spleen was exposed and 100 μl (1 million cells) of the L3.6pl single cell suspension was injected directly in the spleen towards the splenic vein (intra splenic injection). Once the injection was complete, the splenic artery and splenic vein were ligated, the spleen was excised, and the animals' wounds were closed. Post-op care and analgesia was given for 4 consecutive days and animals were monitored for recovery.\nPrior to the procedure listed above 40 animals were separated into 4 groups consisting of 10 animals each.\nAnimals in group 2 (Pre-Treatment), received IPI-926 every-other-day for 14 days, prior to the intra splenic injection procedure, continuing until the study end.\nAnimals in group 3 (Day-of-Treatment), received IPI-926 every-other-day beginning on the day of the intra splenic injection procedure, continuing until the study end.\nAnimals in group 4 (Post-Treatment), received IPI-926 every-other-day beginning 7 days after the intra splenic injection procedure, continuing until the study end.\n(§2) Results Procedure: Animals were injected with 10 ml/kg of luciferin concentrated at […] via I.P. injection. This luciferin binds to the L3.6pl P-Lucky cells injected on day 0. Utilizing Calipers Xenogen© machine, this cell-luciferin association emits bioluminescence that can be read and quantified (total flux).\nResults: The graphs in FIGS. 10A-10B represent the quantification, normalized on each day to the average of vehicle treated animals. This normalization was done using the formula: (1/(average flux of vehicle animals/average flux of group X (group being compared)))."}, "[2]": {"test_system": "L3.6pl P-lucky liver metastasis", "assay": "L3.6pl liver metastasis model, Study #2", "format": "in vivo", "description": "as §1\nPrior to the procedure listed above 48 animals were separated into […].\nAnimals in group 2 (Day-of-Treatment), received IPI-926 every-other-day beginning on the day of the intra splenic injection procedure, continuing until the study end.\nAnimals in group 3 (Pre-Treatment Day −2), received IPI-926 every-other-day starting two days prior to the day of the intra splenic injection procedure, continuing until the study end.\nAnimals in group 4 (Pre-Treatment Day −7), received IPI-926 every-other-day starting seven days prior to the day of the intra splenic injection procedure, continuing until the study end.\nAnimals in group 5 (Pre-Treatment Day −14—treatment stopped on Day 0), received IPI-926 every-other-day starting fourteen days prior to the day of the intra splenic injection procedure and ending on the day of implant.\nAnimals in group 6 (Pre-Treatment Day −14), received IPI-926 every-other-day starting fourteen days prior to the day of the intra splenic injection procedure, continuing until the study end.\nas §2, with “quantified.” for “quantified (total flux).”\nResults: FIGS. 12A-12B represent the results from the quantification, normalized on each day to the average of vehicle treated animals. This normalization was done using the formula: (1/(average flux of vehicle animals/average flux of group X (group being compared)))."}, "wild type human SMO": {"target": "T1, wild type human SMO (Homo sapiens, UniProt Q99835)", "T1 construct": "host or cells: C3H10T1/2 cells (ATCC CCL-226), mouse", "T1 sequence (Q99835 28-787)": "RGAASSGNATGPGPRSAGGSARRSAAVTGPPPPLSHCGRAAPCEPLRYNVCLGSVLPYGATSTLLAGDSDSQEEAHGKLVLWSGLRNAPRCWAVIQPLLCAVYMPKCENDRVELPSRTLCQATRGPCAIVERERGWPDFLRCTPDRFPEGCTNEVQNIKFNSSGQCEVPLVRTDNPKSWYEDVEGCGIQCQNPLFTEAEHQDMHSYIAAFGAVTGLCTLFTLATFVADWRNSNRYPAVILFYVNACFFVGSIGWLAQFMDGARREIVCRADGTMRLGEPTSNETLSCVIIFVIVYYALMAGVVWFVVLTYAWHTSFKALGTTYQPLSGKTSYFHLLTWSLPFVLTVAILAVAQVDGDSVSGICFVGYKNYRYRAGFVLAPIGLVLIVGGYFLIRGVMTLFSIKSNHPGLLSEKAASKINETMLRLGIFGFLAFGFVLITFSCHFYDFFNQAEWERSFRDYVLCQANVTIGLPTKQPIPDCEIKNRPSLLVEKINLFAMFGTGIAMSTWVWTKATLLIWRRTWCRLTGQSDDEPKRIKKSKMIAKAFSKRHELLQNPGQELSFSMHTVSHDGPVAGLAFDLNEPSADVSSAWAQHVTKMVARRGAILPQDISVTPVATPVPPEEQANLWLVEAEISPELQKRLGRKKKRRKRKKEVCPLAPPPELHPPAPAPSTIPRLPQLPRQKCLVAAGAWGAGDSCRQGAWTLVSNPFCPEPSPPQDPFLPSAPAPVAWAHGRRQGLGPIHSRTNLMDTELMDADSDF", "assay": "Gli-luciferase reporter assay, C3H10T1/2 cells transfected with wild type SMO", "format": "cell-based, mouse", "description": "Wild type human SMO was subcloned into pcDNA3.1 from an expression construct in pCMV6 (Origene #SC122724). D473H SMO was then generated by site-directed mutagenesis using the Stratagene QuikChange kit (Agilent #200519) and sequence verified.\nGli-Luciferase reporter assays were performed as described. (Yauch et al. (2009) Science 326: 572-574) Briefly, C3H10 T1/2 cells (ATCC, #CCL-226) were plated in six-well plates at 1×10 to 5th cells per well in BME (Gibco #21010) with 10% FBS (Hyclone #SH30070.03), 2 mM Glutamine (Gibco #25030) and 50 units penicillin/50 ug streptomycin (Gibco #15140). The next morning, cells were transfected with 400 ng SMO expression construct, 400 ng 8× Gli-Luc, and 200 ng pRL-TK per well with GeneJuice transfection reagent (Novagen #70967). Cells in each well were lifted six hours later and replated into four wells of a 12 well plate and allowed to attach overnight. Medium was then changed to low (0.5%) serum and compounds were added in quadruplicate in a range of concentrations. After a 48 hour incubation, firefly and renilla luciferase were assayed using the Promega Dual-Glo Luciferase Assay System (Promega #E2940) and ratios were used to determine percent of control using Prism graphing software."}, "[3]": {"test_system": "Hedgehog pathway in stromal cells", "settings": "after single administration; cited from earlier work"}, "L3.6pl xenografts": {"test_system": "L3.6pl xenografts", "settings": "with paclitaxel bonded to albumin (Abraxane)"}, "[4]": {"settings": "treatment from 14 days prior to implant"}},
  "data": [
    {"smiles": "CC1=C2C[C@H]3[C@@H](CC[C@@H]4C[C@H](NS(C)(=O)=O)CC[C@@]43C)[C@@H]2CC[C@@]2(C1)O[C@@H]1C[C@H](C)CN[C@H]1[C@H]2C", "note": "[IPI-926]", "values": [
      {"measurement": "reduction in flux (bioluminescence) below vehicle", "setting": "[1]; IPI-926 every-other-day from 14 days prior to implant", "result": "20-25 fold"},
      {"measurement": "take or growth of metastasis within the liver", "setting": "[1]; day of implant treatment (Day 0)", "result": "no detectable effect"},
      {"measurement": "H&E staining of liver, tumor cells or metastasis", "setting": "[1]; day of treated group", "result": "visible metastasis and tumors cells present"},
      {"measurement": "survival rate vs vehicle", "setting": "[1]; day of treatment group", "result": "survival rates similar to vehicle treated animals"},
      {"measurement": "take or growth of metastasis within the liver", "setting": "[1]; post implant treatment (Day 7)", "result": "no detectable effect"},
      {"measurement": "H&E staining of liver, tumor cells or metastasis", "setting": "[1]; post treated group", "result": "visible metastasis and tumors cells present"},
      {"measurement": "survival rate vs vehicle", "setting": "[1]; post treatment group", "result": "survival rates similar to vehicle treated animals"},
      {"measurement": "H&E staining of liver, tumor cells or metastasis", "setting": "[1]; pre-treatment animal", "result": "no detectable tumor cells or metastasis"},
      {"measurement": "overall survival rate vs vehicle", "setting": "[1]; [4]", "result": "doubles the overall survival rate"},
      {"measurement": "take or growth of metastasis within the liver", "setting": "[2]; 2 days of pre treatment", "result": "no effect"},
      {"measurement": "overall survival vs vehicle", "setting": "[2]; 7 days of pre-treatment", "result": "survival benefit"},
      {"measurement": "overall survival vs vehicle", "setting": "[2]; 14 days of pre-treatment then stopping", "result": "survival benefit"},
      {"measurement": "reduction in luminescence below vehicle", "setting": "[2]; 14 days prior to implant then stopping dosing, early time point", "result": "roughly 15 fold"},
      {"measurement": "decrease in bioluminescence compared to vehicle", "setting": "[2]; 14 days prior to implant then stopping dosing, latest time point", "result": 5, "unit": "fold"},
      {"measurement": "take or growth of metastasis within the liver", "setting": "[2]; day of implant treatment", "result": "no effect"},
      {"measurement": "overall survival vs vehicle", "setting": "[2]; pre-treatment beginning at day -2", "result": "limited survival benefits"},
      {"measurement": "reduction in bioluminescence below vehicle", "setting": "[2]; treatment from 7 days prior to implant", "result": "10-15 fold"},
      {"measurement": "increase of overall survival rate, factor", "setting": "[2]; [4]", "result": "≥ 2"},
      {"measurement": "reduction in flux (bioluminescence) below vehicle", "setting": "[2]; treatment from 14 days prior to implant, continued", "result": "20-25 fold"},
      {"measurement": "overall survival vs vehicle", "setting": "[2]; treatment starting on the day of implant, day 0", "result": "no benefit"},
      {"measurement": "IC50", "setting": "wild type human SMO", "result": 9, "unit": "nM"},
      {"measurement": "Hedgehog pathway inhibition in stromal cells", "setting": "[3]", "result": "rapid and sustained Hedgehog pathway inhibition"},
      {"measurement": "effect on therapeutic agent effect of Abraxane", "setting": "L3.6pl xenografts", "result": "enhances the therapeutic agent effect"}
    ]}
  ]
}
